# Reference: patent US6011046A, “Quinone compound, its production and use as antioxidant” (Takeda Chemical Industries, Ltd., priority 1995, dated 2000)
# Experiments:
# Na+ channel site 1 = type: binding, SD male rats; details: [3H]-saxitoxin 2 nM, rat forebrain homogenate, 37° C., 30 minutes
# Na+ channel site 2 = tested on: Na+ channel site 2; parameters: species or system SD male rats; details: [3H]-batrachotoxin 2 nM, rat forebrain homogenate, 37° C., 45 minutes; read-out: IC50 (Na+ channel binding, site 2)
# [1] = tested on: lipoperoxide formed in the brain homogenate; assay: Lipoperoxide formation inhibitory effect (thiobarbituric acid (TBA) method, brain homogenate); type: biochemical, Wistar male rats; details: rat cerebral cortex homogenate supernatant, 37° C., 30 minutes, pH 7.4, malondialdehyde at 532 nm
# Experimental: The lipoperoxide formed in the brain homogenate was quantified by the thiobarbituric acid (TBA) method of Stocks et al. (Cli. Sci. Mol. Med. 47, 215 (1974)). The cerebral cortex was removed from Wistar male rats (10 weeks old), and homogenized in ice-cooled phosphate physiological saline buffer (40 mM KH2 PO4 /K2 HPO4, 0.142M NaCl, pH 7.4). The homogenate was centrifuged at 1,000×g for 10 minutes, and the supernatant of the homogenate was used for the experiment. A solution of the test compound in ethanol (10 μl) was added to the supernatant (1 ml), and the mixture was incubated at 37° C. for 30 minutes. The reaction was stopped by adding 35% perchloric acid solution (200 μl). The reaction mixture was centrifuged at 13,000× g for 10 minutes, and 1% thiobarbituric acid solution (250 μl) was added to the supernatant (1.0 ml). The mixture was heated at 100° C. for 15 minutes, and then the amount of malondialdehyde formed by decomposition of the lipoperoxide was determined by colorimetry (532 nm).
Compound,effect on site 1 of Na channels (Na+ channel site 1),IC50 (Na+ channel site 2) [µM],IC50 [1] [µM]
"CC1=C(C)C(=O)C(C[C@](C)(O)CN2CCC(c3ccccc3)CC2)=C(C)C1=O [compound (A), (S)-2-[2-Hydroxy-2-methyl-3-(4-phenylpiperidin-1-yl)propyl]-3,5,6-trimethyl-1,4-benzoquinone]",no effect,0.9,3.5 ± 0.56
vitamin E [reference compound],–,–,203 ± 43
